Square brackets hold non-standard residues; d marks the D form. Peptide text beside a SMILES is read from it. Orn(N5-OH,N5-Ac) = CC(=O)N(O)CCC[C@H](N)C(=O)O
Legend:
Format in all cases: cell-based, Aspergillus fumigatus
ΔsidACEA17 [1] = assay: Conidia production of ΔsidACEA17; conditions: without supplement 99% decrease
Method: (§1) FIG. 3: A. Growth phenotypes of wild type and mutant strains. […] 10^4 conidia of the respective strain were point-inoculated on AMM plates containing the respective iron source, and incubated for 48 h at 37° C. Blood agar was AMM containing 5% sheep blood.
(§2) To elucidate the role of sidA a gene deletion mutant from CEA17 by replacement with pyrG was constructed (Weidner (1998), loc. cit.).

[2] = tested on: ΔAf-sidA, OMO-deficient A. fumigatus strain; assay: Radial growth of siderophore-negative ΔAf-sidA on Aspergillus minimal medium plates
Source text: As is described in the appended Examples below, to elucidate the function of Af-sidA, a deletion mutant for this gene was constructed. In the generated mutant allele of ΔAf-sidA, the entire coding region, 279 bp downstream and 137 bp upstream region of the gene was replaced by the hygromycine resistance (hph) marker. […] Consistent with reductive iron assimilation being responsible for the residual growth of ΔAf-sidA, the use of copper-deficient media or the addition of the copper-specific chelator bathocuproine disulfonic acid in a concentration of 30 μM decreased the radial growth rate of ΔAf-sidA 46% and 25% compared to the wt. The growth of ΔAf-sidA was increased to 84% and 99% by supplementation with 1.5 mM FeSO4 and 10 μM ferricrocin, respectively.
as §1

ΔsidD = assay: Radial growth of ΔsidD in the presence of BPS; conditions: iron depleted conditions, BPS 200 μM, radial growth at 48 h
Method: as §1
(§3) FIG. 12: Growth phenotypes of wild type and Δat1, ΔsidD and Δat2 mutant strains. Growth assays were performed during iron replete conditions (+Fe, 10 μM FeSO4), iron depleted conditions (−Fe), iron depleted conditions in the presence of bathophenantroline-disulfonate (BPS, 200 μM) and on blood agar (blood) as described in FIG. 3, radial growth was scored at 48 h.
(§4) Bathophenantroline-disulfonic acid is an inhibitor of the reductive iron assimilatory system and the iron contained in blood agar cannot be readily used by the reductive iron assimilatory system.

Δat1 = assay: Radial growth of Δat1 in the presence of BPS; conditions: iron depleted conditions, BPS 200 μM, radial growth at 48 h
Method: as §1, §3, §4

ΔsidACEA17 [3] = assay: Growth sensitivity of ΔsidACEA17 to ferrous iron chelator
Method: as §1, §2

Δat2 = assay: Radial growth of Δat2 in the presence of BPS; conditions: iron depleted conditions, BPS 200 μM, radial growth at 48 h
Method: as §1, §3, §4

ΔsidA/ΔftrACEA17 = assay: Growth of double mutant ΔsidA/ΔftrACEA17 on different iron sources; conditions: for growth promotion of ΔsidA/ΔftrACEA17: high amounts; for growth of ΔsidA/ΔftrACEA17 on host iron compound as sole iron source: 10 μM as the sole iron source
Method: 10^4 conidia of the respective strain were point-inoculated on AMM plates containing the respective iron source, and incubated for 48 h at 37° C. Blood agar was AMM containing 5% sheep blood.
To analyze the potential role of FtrA in iron uptake of A. fumigatus we deleted the encoding gene in ΔsidACEA17 by replacement with the hygromycin resistance (hph) marker (Punt (1987), loc. cit.).

## O=S(=O)([O-])[O-].[Fe+2] [FeSO4]
ΔsidACEA17 [1]; supplementation with 1.5 mM
  conidia production of ΔsidACEA17: 35%
[2]; supplementation with 1.5 mM
  growth of ΔAf-sidA compared to the wt: 84%

## Cc1cc(-c2ccc(S(=O)(=O)O)cc2)c2ccc3c(-c4ccc(S(=O)(=O)O)cc4)cc(C)nc3c2n1 [bathocuproine disulfonic acid]
[2]; addition of chelator at 30 μM
  radial growth rate of ΔAf-sidA compared to the wt: 25%

## O=S(=O)(O)c1ccc(-c2ccnc3c2ccc2c(-c4ccc(S(=O)(=O)O)cc4)ccnc23)cc1 [bathophenantroline disulfonate, bathophenanthroline disulfonic acid]
ΔsidD
  growth rate of ΔsidD: decreased growth rate
Δat1
  growth rate of Δat1: decreased growth rate
ΔsidACEA17 [3]
  sensitivity of ΔsidACEA17 to chelator: increased sensitivity
[2]
  growth of siderophore negative A fumigatus (FIG. 7): Growth inhibition
Δat2
  growth rate of Δat2: wild type growth rate

## [Cl][Fe]([Cl])[Cl] [ferric iron]
ΔsidA/ΔftrACEA17
  growth promotion of ΔsidA/ΔftrACEA17: not

## CC(=O)N([O-])CCC[C@@H]1NC(=O)CNC(=O)[C@H](CO)NC(=O)CNC(=O)[C@H](CCCN([O-])C(C)=O)NC(=O)[C@H](CCCN([O-])C(C)=O)NC1=O.[Fe+3] [ferricrocin] (cyclo(GSG[Orn(N5-OH,N5-Ac)][Orn(N5-OH,N5-Ac)][Orn(N5-OH,N5-Ac)]))
ΔsidACEA17 [1]; supplementation with 10 μM
  conidia production of ΔsidACEA17: 125%
[2]
  antagonism of growth inhibition by BPS and blood (FIG. 7): antagonist action
[2]; supplementation with 10 μM
  growth of ΔAf-sidA compared to the wt: 99%
ΔsidA/ΔftrACEA17
  growth of ΔsidA/ΔftrACEA17 with siderophore in growth medium: unable to grow unless the growth medium contained ferricrocin

## [Fe+2] [ferrous iron]
ΔsidA/ΔftrACEA17
  growth promotion of ΔsidA/ΔftrACEA17: slight growth promotion

## hemin
ΔsidA/ΔftrACEA17
  growth of ΔsidA/ΔftrACEA17 on host iron compound as sole iron source: failed to grow

## holotransferrin: host iron compound tested as sole iron source
ΔsidA/ΔftrACEA17
  growth of ΔsidA/ΔftrACEA17 on host iron compound as sole iron source: failed to grow

## iron chloride
ΔsidACEA17 [1]; supplementation with 1.5 mM
  conidia production of ΔsidACEA17: 35%

Source: patent US20080152641A1, “Inhibitors of Siderophore Biosynthesis in Fungi” (Autria Wirtschaftsservice, priority 2004, published 2008)
